For one assay, the target named is T1, p300 (Homo sapiens, UniProt Q09472).
T1 construct: host or cells: A549 P300 HiBit cells
Put plainly: P300 degradation, HiBit technology in A549 P300 HiBit cells (2 h). The following applies: 2 hrs post treatment; for Dmax: A549, A549 P300 HiBit cells. Format: cell-based. In a few lines:
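Cells: A549 HiBiT-tagged lines, 0.2×10^4/well, F-12K + 10% HI-FBS, equilibrated overnight. Tx: serial dilution of cpd (10 mM DMSO stock). Readout: HiBiT lytic reagent, 10 min RT shaking, luminescence → potency, Dmax.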
Background: The HiBiT peptide binds its large partner to form an active luciferase.

The target of another assay is T2, CBP (Homo sapiens, UniProt Q92793).
T2 construct: host or cells: A549 CBP HiBit cells
T2 sequence (Q92793 whole entry): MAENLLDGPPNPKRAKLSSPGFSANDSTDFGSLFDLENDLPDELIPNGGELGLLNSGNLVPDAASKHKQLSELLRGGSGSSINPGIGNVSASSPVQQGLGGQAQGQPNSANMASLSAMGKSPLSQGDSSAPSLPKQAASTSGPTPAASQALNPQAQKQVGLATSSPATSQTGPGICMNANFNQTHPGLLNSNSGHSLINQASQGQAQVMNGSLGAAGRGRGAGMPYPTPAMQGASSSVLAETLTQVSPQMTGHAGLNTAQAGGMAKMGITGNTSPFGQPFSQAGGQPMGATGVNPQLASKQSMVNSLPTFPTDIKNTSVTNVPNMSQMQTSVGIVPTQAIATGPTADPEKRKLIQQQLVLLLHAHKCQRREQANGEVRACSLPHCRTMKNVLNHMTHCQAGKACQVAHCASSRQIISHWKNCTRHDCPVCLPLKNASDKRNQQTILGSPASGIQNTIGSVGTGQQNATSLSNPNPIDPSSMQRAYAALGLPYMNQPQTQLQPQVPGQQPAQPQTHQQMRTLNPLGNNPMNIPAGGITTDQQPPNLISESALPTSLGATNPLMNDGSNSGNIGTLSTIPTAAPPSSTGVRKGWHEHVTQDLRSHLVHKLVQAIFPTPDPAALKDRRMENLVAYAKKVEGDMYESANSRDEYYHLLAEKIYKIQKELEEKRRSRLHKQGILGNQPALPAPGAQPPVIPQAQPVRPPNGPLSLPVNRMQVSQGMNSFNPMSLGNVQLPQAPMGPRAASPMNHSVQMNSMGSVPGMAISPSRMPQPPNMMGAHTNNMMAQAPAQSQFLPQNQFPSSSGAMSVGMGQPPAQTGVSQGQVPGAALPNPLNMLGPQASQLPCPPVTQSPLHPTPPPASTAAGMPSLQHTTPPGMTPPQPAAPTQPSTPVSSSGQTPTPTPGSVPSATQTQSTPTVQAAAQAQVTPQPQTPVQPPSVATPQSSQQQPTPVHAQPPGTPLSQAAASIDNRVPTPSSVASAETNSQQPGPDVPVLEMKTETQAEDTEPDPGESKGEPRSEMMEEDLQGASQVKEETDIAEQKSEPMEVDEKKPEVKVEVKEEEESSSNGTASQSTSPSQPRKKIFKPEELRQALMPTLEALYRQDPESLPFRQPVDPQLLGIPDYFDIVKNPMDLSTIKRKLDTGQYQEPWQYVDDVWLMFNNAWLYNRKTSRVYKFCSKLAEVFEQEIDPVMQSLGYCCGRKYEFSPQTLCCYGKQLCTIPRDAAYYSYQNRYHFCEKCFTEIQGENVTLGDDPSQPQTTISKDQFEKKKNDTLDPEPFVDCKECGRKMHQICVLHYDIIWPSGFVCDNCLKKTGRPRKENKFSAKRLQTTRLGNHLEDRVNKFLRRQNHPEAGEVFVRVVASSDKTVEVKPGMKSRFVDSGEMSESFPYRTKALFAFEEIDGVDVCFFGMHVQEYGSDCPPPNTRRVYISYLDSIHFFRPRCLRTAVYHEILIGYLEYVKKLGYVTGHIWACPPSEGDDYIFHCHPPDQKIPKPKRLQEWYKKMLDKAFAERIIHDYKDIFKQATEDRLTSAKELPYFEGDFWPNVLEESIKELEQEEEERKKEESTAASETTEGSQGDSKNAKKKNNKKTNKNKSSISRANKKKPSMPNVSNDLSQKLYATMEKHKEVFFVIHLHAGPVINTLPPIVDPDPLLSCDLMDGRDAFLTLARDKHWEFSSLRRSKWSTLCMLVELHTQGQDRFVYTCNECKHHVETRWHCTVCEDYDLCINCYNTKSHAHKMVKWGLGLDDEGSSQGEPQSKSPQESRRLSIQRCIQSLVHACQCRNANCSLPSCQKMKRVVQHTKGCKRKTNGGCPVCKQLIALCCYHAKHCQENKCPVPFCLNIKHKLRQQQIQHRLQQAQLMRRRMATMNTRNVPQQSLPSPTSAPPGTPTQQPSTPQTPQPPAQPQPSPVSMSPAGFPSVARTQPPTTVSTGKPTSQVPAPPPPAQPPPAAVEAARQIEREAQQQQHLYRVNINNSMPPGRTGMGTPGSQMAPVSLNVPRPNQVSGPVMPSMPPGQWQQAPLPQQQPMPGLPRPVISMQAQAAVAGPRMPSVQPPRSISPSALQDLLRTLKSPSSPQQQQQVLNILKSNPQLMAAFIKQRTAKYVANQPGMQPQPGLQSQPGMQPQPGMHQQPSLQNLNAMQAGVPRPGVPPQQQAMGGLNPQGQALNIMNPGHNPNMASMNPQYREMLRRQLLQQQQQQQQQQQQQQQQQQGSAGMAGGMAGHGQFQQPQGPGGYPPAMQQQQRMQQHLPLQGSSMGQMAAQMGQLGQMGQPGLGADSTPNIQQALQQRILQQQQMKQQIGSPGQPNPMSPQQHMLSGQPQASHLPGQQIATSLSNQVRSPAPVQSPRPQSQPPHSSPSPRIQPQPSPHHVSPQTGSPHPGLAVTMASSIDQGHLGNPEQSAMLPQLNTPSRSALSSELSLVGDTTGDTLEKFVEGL
Put plainly: CBP degradation, HiBit technology in A549 CBP HiBit cells (24 h). It is filed as cell-based. The following applies: 24 hrs post treatment. The procedure:
p300 and CBP degradation potency and Dmax were determined using in cell western (ICW) assay technology in H1299 cells or HiBit technology in A549 HiBit cells.
A549 P300 HiBit and A549 CBP HiBit cells were plated in separate 384-well, TC treated, white-opaque, flat-bottomed microplate. Cells were plated at a cell density of 0.2×10^4 cells per well in assay media comprised of F-12K, 10% heat inactivated FBS, and 1% penicillin/streptomycin. Assay microplates containing HiBit cells were placed in a 37° C., 5% CO2, tissue culture incubator and left to equilibrate overnight. The next day cells were treated with serial dilutions of test compound made up of 10 mM stock solutions in DMSO. 384-Well plates containing treated cells were then placed back into a 37° C., 5% CO2, tissue culture incubator. Assay microplates containing A549 P300 HiBit cells were incubated for 2 hrs post treatment before P300 destruction was assessed, while microplates containing A549 CBP HiBit cells were incubated for 24 hrs post treatment before CBP destruction was determined. On the day of each assay time point, microplates were removed from the tissue culture incubator and prepared HiBit Lytic detection buffer (Promega, cat #N3O40) was added to each plate. Plates were covered with aluminum foil and incubated for ten minutes at room temperature on an orbital shaker. After incubation, luminescent signal of each plate was measured using the Envision instrument (Perkin Elmer).

This note sets out measurements from patent US20250114345A1, “COMPOUNDS AND COMPOSITIONS AS CBP/P300 DEGRADERS AND USES THEREOF” (Oncopia Therapeutics, Inc. d/b/a/ SK Life Science Labs, priority 2023, published 2025).

Bounds are passed on as bounds.

What is called Dmax is the greatest extent of degradation seen. Lower therefore signals shallow degradation. What is called DC50 is the midpoint of the concentration-degradation curve. Low values mean a more potent degrader, high ones a less potent degrader.

T1 sequence (Q09472 whole entry): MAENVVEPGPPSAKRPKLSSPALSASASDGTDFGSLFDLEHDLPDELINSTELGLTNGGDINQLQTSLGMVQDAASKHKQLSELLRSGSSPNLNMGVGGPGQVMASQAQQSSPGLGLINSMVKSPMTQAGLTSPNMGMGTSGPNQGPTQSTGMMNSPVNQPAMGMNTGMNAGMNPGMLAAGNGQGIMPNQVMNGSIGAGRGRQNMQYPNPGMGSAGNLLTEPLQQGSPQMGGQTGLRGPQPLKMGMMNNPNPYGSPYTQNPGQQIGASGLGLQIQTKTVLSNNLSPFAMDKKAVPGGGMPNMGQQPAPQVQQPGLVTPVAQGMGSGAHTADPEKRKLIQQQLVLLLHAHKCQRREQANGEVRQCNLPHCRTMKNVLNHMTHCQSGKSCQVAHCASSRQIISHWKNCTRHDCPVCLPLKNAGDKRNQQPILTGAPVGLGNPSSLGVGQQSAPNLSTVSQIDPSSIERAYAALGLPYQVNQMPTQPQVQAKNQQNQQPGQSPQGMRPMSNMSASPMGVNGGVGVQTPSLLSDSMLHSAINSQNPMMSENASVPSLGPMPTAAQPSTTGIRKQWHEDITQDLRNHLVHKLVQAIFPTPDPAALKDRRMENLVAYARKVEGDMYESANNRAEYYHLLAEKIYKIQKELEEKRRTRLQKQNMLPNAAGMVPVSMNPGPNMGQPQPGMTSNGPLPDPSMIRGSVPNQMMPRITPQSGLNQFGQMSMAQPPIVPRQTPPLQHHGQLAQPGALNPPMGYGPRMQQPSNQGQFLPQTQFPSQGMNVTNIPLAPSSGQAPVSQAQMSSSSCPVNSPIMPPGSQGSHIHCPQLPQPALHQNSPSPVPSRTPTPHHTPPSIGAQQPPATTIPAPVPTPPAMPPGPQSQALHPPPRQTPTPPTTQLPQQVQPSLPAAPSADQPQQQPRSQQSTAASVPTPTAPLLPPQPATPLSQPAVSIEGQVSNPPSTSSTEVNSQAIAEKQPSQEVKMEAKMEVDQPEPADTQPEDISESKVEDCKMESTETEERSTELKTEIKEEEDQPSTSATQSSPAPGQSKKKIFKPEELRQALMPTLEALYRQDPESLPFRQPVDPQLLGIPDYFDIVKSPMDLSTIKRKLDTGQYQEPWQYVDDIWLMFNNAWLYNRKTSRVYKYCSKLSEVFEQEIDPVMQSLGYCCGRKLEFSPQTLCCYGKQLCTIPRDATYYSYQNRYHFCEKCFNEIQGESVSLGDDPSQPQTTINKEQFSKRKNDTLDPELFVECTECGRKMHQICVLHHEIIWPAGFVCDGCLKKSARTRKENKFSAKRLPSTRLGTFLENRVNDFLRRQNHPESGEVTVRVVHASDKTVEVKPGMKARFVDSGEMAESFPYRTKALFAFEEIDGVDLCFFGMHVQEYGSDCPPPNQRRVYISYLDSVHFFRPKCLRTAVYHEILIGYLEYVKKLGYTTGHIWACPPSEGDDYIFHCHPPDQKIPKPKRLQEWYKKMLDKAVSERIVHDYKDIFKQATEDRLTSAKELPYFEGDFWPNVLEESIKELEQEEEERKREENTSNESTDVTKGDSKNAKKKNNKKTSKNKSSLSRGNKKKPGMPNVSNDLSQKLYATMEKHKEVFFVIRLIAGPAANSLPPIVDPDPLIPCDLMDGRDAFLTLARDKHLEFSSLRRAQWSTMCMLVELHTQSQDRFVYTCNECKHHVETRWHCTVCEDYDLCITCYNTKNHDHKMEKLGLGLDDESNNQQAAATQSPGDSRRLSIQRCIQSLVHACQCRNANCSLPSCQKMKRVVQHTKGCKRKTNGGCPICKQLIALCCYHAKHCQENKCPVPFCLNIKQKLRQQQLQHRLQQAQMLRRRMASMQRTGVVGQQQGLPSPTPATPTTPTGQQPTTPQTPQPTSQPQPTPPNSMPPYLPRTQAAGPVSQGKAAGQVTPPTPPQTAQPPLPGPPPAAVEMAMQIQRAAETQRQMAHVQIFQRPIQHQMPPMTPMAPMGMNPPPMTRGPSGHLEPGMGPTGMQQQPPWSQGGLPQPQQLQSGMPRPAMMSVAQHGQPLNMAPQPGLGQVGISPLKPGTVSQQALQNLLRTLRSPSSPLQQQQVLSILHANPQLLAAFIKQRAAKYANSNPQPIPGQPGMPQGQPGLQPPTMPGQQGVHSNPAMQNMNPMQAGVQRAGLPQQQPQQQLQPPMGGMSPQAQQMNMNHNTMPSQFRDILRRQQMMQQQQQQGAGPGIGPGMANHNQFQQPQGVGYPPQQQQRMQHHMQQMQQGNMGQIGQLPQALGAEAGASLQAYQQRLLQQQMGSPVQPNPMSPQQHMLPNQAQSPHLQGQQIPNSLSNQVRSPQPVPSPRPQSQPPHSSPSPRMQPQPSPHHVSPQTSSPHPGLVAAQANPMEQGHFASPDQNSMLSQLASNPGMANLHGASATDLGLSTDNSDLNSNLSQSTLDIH

Consider `CC(C)c1cc(N2CCCc3cc(-c4ccc(C(=O)NCC#Cc5ccc6occ(C7CCC(=O)NC7=O)c6c5)nc4)ncc32)cc2c1n(C)c(=O)n2C` (centres unmarked) [Example A100, N-(3-(3-(2,6-dioxo-piperidin-3-yl)benzofuran-5-yl)prop-2-yn-1-yl)-5-(1-(7-isopropyl-1,3-dimethyl-2-oxo-2,3-dihydro-1H-benzo [d]imidazol-5-yl)-1,2,3,4-tetrahydro-1,7-naphthyridin-6-yl)picolinamide], for which the Dmax is more than 80% at p300 and 20 to 39% at CBP. Besides, the figures for the DC50 at p300 (A549 P300 HiBit cells) and at CBP were 1 to 9.9 nM and 10 to 99 nM, respectively.
The matching figures for `Cc1cc(-c2ncc(N(C)c3cc(C4CCOCC4)c4c(c3)n(C)c(=O)n4C)cn2)cnc1C(=O)NCC#Cc1ccc2occ(C3CCC(=O)NC3=O)c2c1` (centres unmarked) [Example A53, 5-(5-((1,3-dimethyl-2-oxo-7-(tetrahydro-2H-pyran-4-yl)-2,3-dihydro-1H-benzo[d]imidazol-5-yl)(methyl)amino)pyrimidin-2-yl)-N-(3-(3-(2,6-dioxo-piperidin-3-yl)benzofuran-5-yl)prop-2-yn-1-yl)-3-methylpicolinamide]: more than 80%, less than 20%, less than 1 nM and more than 1000 nM.
The matching figures for `Cn1c(=O)n(C)c2c(N3CC(O)C3)nc(-c3cccc4cc(-c5ccc(C(=O)NCC#Cc6ccc7occ(C8CCC(=O)NC8=O)c7c6)nc5)ncc34)cc21` (centres unmarked) [Example A115, N-(3-(3-(2,6-dioxo-piperidin-3-yl)benzofuran-5-yl)prop-2-yn-1-yl)-5-(8-(4-(3-hydroxyazetidin-1-yl)-1,3-dimethyl-2-oxo-2,3-dihydro-1H-imidazo[4,5-c]pyridin-6-yl)isoquinolin-3-yl)picolinamide]: more than 80%, less than 20%, less than 1 nM and more than 1000 nM.
The matching figures for `Cc1cc(-c2cc3c(cn2)N(c2cc(C(C)C)c4c(c2)n(C)c(=O)n4C)CCC3)cnc1C(=O)NCC#Cc1ccn2ncc(C3CCC(=O)NC3=O)c2c1` (centres unmarked) [Example A238, N-(3-(3-(2,6-dioxo-piperidin-3-yl)pyrazolo[1,5-a]pyridin-5-yl)prop-2-yn-1-yl)-5-(1-(7-isopropyl-1,3-dimethyl-2-oxo-2,3-dihydro-1H-benzo[d]imidazol-5-yl)-1,2,3,4-tetrahydro-1,7-naphthyridin-6-yl)-3-methylpicolinamide]: more than 80%, 40 to 59%, less than 1 nM and 1 to 9.9 nM.
For the molecule `Cc1cc(-c2ncc3c(n2)OCCN3c2ccc3c(c2)n(C)c(=O)n3C)cnc1C(=O)NCC#Cc1ccc2occ(C3CCC(=O)NC3=O)c2c1` (centres unmarked) [Example A92, 5-(5-(1,3-dimethyl-2-oxo-2,3-dihydro-1H-benzo[d]imidazol-5-yl)-6,7-dihydro-5H-pyrimido[4,5-b][1,4]oxazin-2-yl)-N-(3-(3-(2,6-dioxopiperidin-3-yl)benzofuran-5-yl)prop-2-yn-1-yl)-3-methylpicolinamide], at p300 (A549 P300 HiBit cells), the DC50 is 1 to 9.9 nM and the “P300 A549 2 h HiBit DMax (%)” value was “A (“A”: > 80%)”. At CBP, the DC50 was more than 1000 nM and the Dmax is less than 20%.
As for `Cc1cc2c(N3CCCc4nc(-c5ccc(C(=O)NCC#Cc6cc7c(C8CCC(=O)NC8=O)cccc7o6)nc5)ncc43)cc(C3CC4CCC(C3)O4)nc2n(C)c1=O` (centres unmarked) [Example B159, 5-(5-(2-(8-oxabicyclo[3.2.1]octan-3-yl)-6,8-dimethyl-7-oxo-7,8-dihydro-1,8-naphthyridin-4-yl)-5,6,7,8-tetrahydropyrido[3,2-d]pyrimidin-2-yl)-N-(3-(4-(2,6-dioxopiperidin-3-yl)benzofuran-2-yl)prop-2-yn-1-yl)picolinamide], the Dmax on p300 was more than 80%; on CBP, 20 to 39%. Further, the 50% degradation concentration (DC50) fell in the range of 1 to 9.9 nM at p300 (A549 P300 HiBit cells) and 100 to 999 nM on CBP.
Regarding `CC(C)c1cc(-c2cccc3cc(-c4ccc(C(=O)NCC#Cc5ccc6scc(C7CCC(=O)NC7=O)c6c5)nc4)ncc23)cc2c1n(C)c(=O)n2C` (centres unmarked) [Example A164, N-(3-(3-(2,6-dioxo-piperidin-3-yl)benzo[b]thiophen-5-yl)prop-2-yn-1-yl)-5-(8-(7-isopropyl-1,3-dimethyl-2-oxo-2,3-dihydro-1H-benzo [d]imidazol-5-yl)isoquinolin-3-yl)picolinamide], the Dmax is more than 80% at p300 and less than 20% at CBP. Also, the figures for the DC50 on p300 (A549 P300 HiBit cells) and at CBP were 10 to 99 nM and more than 1000 nM, respectively.
`Cc1cc2c(-c3cccc4cc(-c5ccc(C(=O)NCC#Cc6ccc7occ(C8CCC(=O)NC8=O)c7c6)nc5)ncc34)nc(C3CCOCC3)cc2n(C)c1=O` (centres unmarked) [Example B132, 5-(8-(1,3-dimethyl-2-oxo-7-(tetrahydro-2H-pyran-4-yl)-1,2-dihydro-1,6-naphthyridin-5-yl)isoquinolin-3-yl)-N-(3-(3-(2,6-dioxo-piperidin-3-yl)benzofuran-5-yl)prop-2-yn-1-yl)picolinamide]: the Dmax was more than 80% on p300 and less than 20% at CBP. Further, the results for the DC50 on p300 (A549 P300 HiBit cells) and on CBP were 1 to 9.9 nM and more than 1000 nM, respectively.
For the molecule `Cc1cc(N2CCN(C)c3nc(-c4ccc(C(=O)NCC#Cc5cc6c(C7CCC(=O)NC7=O)cccc6o5)nc4)ncc32)cc2c1n(C)c(=O)n2C` (centres unmarked) [Example A219, N-(3-(4-(2,6-dioxo-piperidin-3-yl)benzofuran-2-yl)prop-2-yn-1-yl)-5-(8-methyl-5-(1,3,7-trimethyl-2-oxo-2,3-dihydro-1H-benzo[d]imidazol-5-yl)-5,6,7,8-tetrahydro-pteridin-2-yl)picolinamide], the Dmax on p300 is more than 80%; on CBP, less than 20%. Also, the DC50 on p300 (A549 P300 HiBit cells) is less than 1 nM; at CBP it was 100 to 999 nM.
The corresponding values for `Cc1c(-c2ccc(C(=O)NCC#Cc3ccc4occ(C5CCC(=O)NC5=O)c4c3)nc2)ncc2c(-c3ccc4c(c3)n(C)c(=O)n4C)cccc12` (centres unmarked) [Example A63, 5-(8-(1,3-dimethyl-2-oxo-2,3-dihydro-1H-benzo[d]imidazol-5-yl)-4-methylisoquinolin-3-yl)-N-(3-(3-(2,6-dioxo-piperidin-3-yl)benzofuran-5-yl)prop-2-yn-1-yl)picolinamide] are more than 80%, less than 20%, less than 1 nM and 100 to 999 nM.
`Cn1c(=O)n(C)c2c(N3CC4CCC(C3)O4)nc(-c3cccc4cc(-c5ccc(C(=O)NCC#Cc6ccc7occ(C8CCC(=O)NC8=O)c7c6)nc5)ncc34)cc21` (centres unmarked) [Example A86, 5-(8-(4-(8-oxa-3-azabicyclo[3.2.1]octan-3-yl)-1,3-dimethyl-2-oxo-2,3-dihydro-1H-imidazo[4,5-c]pyridin-6-yl)isoquinolin-3-yl)-N-(3-(3-(2,6-dioxo-piperidin-3-yl)benzofuran-5-yl)prop-2-yn-1-yl)picolinamide]: the Dmax at p300 is more than 80%; on CBP it was less than 20%. Also, the DC50 is 1 to 9.9 nM at p300 (A549 P300 HiBit cells) and more than 1000 nM at CBP.
The matching figures for `Cn1c(=O)n(C)c2c(N3CC(C)(O)C3)nc(-c3cccc4cc(-c5ccc(C(=O)NCC#Cc6ccc7occ(C8CCC(=O)NC8=O)c7c6)nc5)ncc34)cc21` (centres unmarked) [Example A145, N-(3-(3-(2,6-dioxo-piperidin-3-yl)benzofuran-5-yl)prop-2-yn-1-yl)-5-(8-(4-(3-hydroxy-3-methylazetidin-1-yl)-1,3-dimethyl-2-oxo-2,3-dihydro-1H-imidazo[4,5-c]pyridin-6-yl)isoquinolin-3-yl)picolinamide]: more than 80%, less than 20%, less than 1 nM and more than 1000 nM.
The corresponding values for `CC(C)c1cc(-c2cccc3cc(-c4ccc(C(=O)NCC#Cc5ccc6c(c5)n(C5CCC(=O)NC5=O)c(=O)n6C)nc4)ncc23)cc2c1n(C)c(=O)n2C` (centres unmarked) [Example A18, N-(3-(3-(2,6-Dioxopiperidin-3-yl)-1-methyl-2-oxo-2,3-dihydro-1H-benzo[d]imidazol-5-yl)prop-2-yn-1-yl)-5-(8-(7-isopropyl-1,3-dimethyl-2-oxo-2,3-dihydro-1H-benzo[d]imidazol-5-yl)isoquinolin-3-yl)picolinamide] are more than 80%, 60 to 79%, 1 to 9.9 nM and 10 to 99 nM.
For the molecule `Cc1cc(-c2ncc3c(n2)OCCN3c2ccc3c(c2)n(C)c(=O)n3C)cnc1C(=O)NCC#Cc1cc2c(C3CCC(=O)NC3=O)nccc2o1` (centres unmarked) [Example A195, 5-(5-(1,3-dimethyl-2-oxo-2,3-dihydro-1H-benzo[d]imidazol-5-yl)-6,7-dihydro-5H-pyrimido[4,5-b][1,4]oxazin-2-yl)-N-(3-(4-(2,6-dioxopiperidin-3-yl)furo[3,2-c]pyridin-2-yl)prop-2-yn-1-yl)-3-methylpicolinamide], the Dmax is more than 80% on p300 and less than 20% on CBP. The DC50 at p300 (A549 P300 HiBit cells) was 1 to 9.9 nM; on CBP, more than 1000 nM.
